Reference: a melting point compilation (Tetko et al.; mined from patent text by program, amines drawn as free bases though some values may be those of a salt)

First: O=C1c2ccccc2C(=O)N1CC(=O)N1c2ccccc2N(Cc2ccncc2)C(=O)[C@H]2CCC[C@H]21 (relative stereo)
Second: O=C1c2ccccc2C(=O)N1CCCN1CCC(=C(c2ccccc2)c2ccccc2)CC1
The melting point of the first is higher: 211 to 212 °C for the first, 108 to 110 °C for the second.

First: C=Cc1nn(Cc2ccc(C(=O)OC)cc2OC)c2cc(C(=O)NCC3CCCC3)ccc12
Second: COc1ccc2c(c1)c(CC(=O)O)c(C)n2Cc1ccccc1OC
The melting point of the first is lower: 138 to 140 °C for the first, 176 to 180 °C for the second.

First: CC(=O)OC1OC(COC(=O)c2ccccc2)CC(OC(=O)c2ccccc2)C1OC(=O)c1ccccc1 (stereo not given)
Second: CCC(=C(c1ccccc1)c1ccc(C=CC(=O)OC)cc1)c1ccccc1
The melting point of the first is lower: 123 to 124 °C for the first, 133 to 135 °C for the second.

First: Cc1cccc(C)c1COc1cc(C(=O)N(C)C)cc2c1nc(C)n2C
Second: Cc1nc2c(O)cccc2n1C
The melting point of the first is lower: 180 °C for the first, 243 to 245 °C for the second.

Compared with `CC(=Nc1ccc(Cl)nn1)N(C)C`, `COc1ccc(S(=O)(=O)N(C)C)c(N)c1` is lower in melting point: 73 °C for the first, 59 to 64 °C for the second.

Compared with `O=C1NCCc2cc(Br)ccc21`, `CS(=O)(=O)c1cc(Br)ccc1C(=O)O` is higher in melting point: 137 to 139 °C for the first, 220 °C for the second.

First: CNC(=O)COC[C@@H]1CC(c2ccc(-c3ccc(N4C[C@H](Cn5ccnn5)OC4=O)cc3F)cn2)=NO1
Second: CN1C(=O)CN=C(c2ccccc2F)c2cc(NC(=O)NCCCO)ccc21
The melting point of the first is higher: 153 to 156 °C for the first, 118 to 119 °C for the second.

First: NS(=O)(=O)c1ccc(-c2c(-c3ccccc3)noc2COc2ccc(C(=O)O)cc2)cc1
Second: NS(=O)(=O)c1ccc(-n2nc(CF)cc2-c2ccccc2)cc1
The melting point of the first is higher: 206 to 208 °C for the first, 162 to 163 °C for the second.

First: COc1ccccc1-n1c(CCl)nc2ccccc2c1=O
Second: COC(=O)c1cccc2nc(-c3ccccc3)oc12
The melting point of the first is higher: 193 to 194 °C for the first, 77 °C for the second.

Compared with `CCC1Cc2cc(OCC(=O)OC)c(Cl)c(Cl)c2C1=O` (stereo not given), `COC(=O)CCc1cc2c(s1)NC(=O)C(C)N=C2c1ccccc1Cl` (stereo not given) is higher in melting point: 134 to 137 °C for the first, 196 to 197 °C for the second.

First: O=C1NC(C(=O)NCCO[N+](=O)[O-])C(c2cccnc2)S1 (stereo not given)
Second: CC(C)(C)OC(=O)n1ccc2c([N+](=O)[O-])c(NC(=O)COCc3ccccc3)ccc21
The melting point of the first is lower: 139 to 140 °C for the first, 145 to 146 °C for the second.

`Cc1cccc2nc3c(c(N)c12)CCCC3` and `O=Cc1cc(O)c2c(c1O)CCCC2` cannot be ordered by melting point: 143 to 145 °C for the first, 145 °C for the second.

First: N#Cc1cnc2sc(Cl)cc2c1Nc1ccc2[nH]ccc2c1
Second: O=C(Nc1ccc(Cl)cc1)c1cc(Cl)c2cccnc2c1O
The melting point of the first is higher: 228 °C for the first, 214 to 216 °C for the second.

Compared with `N#CCC(=O)c1cc(F)c(F)c(F)c1F`, `CN1CC(=O)N(c2ccc(C#N)c(C(F)(F)F)c2)C1=S` is higher in melting point: 55 to 57 °C for the first, 220 to 221 °C for the second.

First: Fc1ccc2c(c1)nc(Cl)c1nnc(C(F)(F)F)n12
Second: Cc1cccc2c1sc1nc(C(F)(F)F)nn12
The melting point of the first is higher: 135 to 138 °C for the first, 80 to 81 °C for the second.

First: COc1cc2c(cc1[N+](=O)[O-])-c1c(-c3cccs3)c3c(n1CC2)C(=O)N(C(C)(C)C)CCC3
Second: CC(C)Cn1c(CNC(=O)OC(C)(C)C)c(-c2cccs2)c2cc(C(N)=O)ccc2c1=O
The melting point of the first is higher: 279 to 280 °C for the first, 248 to 250 °C for the second.

First: O=C(Nc1ccccc1F)c1c[nH]c2c1C(=O)CCC2
Second: COC(=O)CN1CC(=O)NC1=NN=Cc1ccccc1
The melting point of the first is higher: 238 to 240 °C for the first, 149 to 153 °C for the second.

Compared with `O=Ic1ccc(Cl)cc1[N+](=O)[O-]`, `Cc1cc(-n2cc(I)nc2C)ccc1[N+](=O)[O-]` is higher in melting point: 118 °C for the first, 146 to 148 °C for the second.

First: COC(=O)c1ccc(C(=O)O)cc1C(=O)OC
Second: COC(=O)c1cnc(Cl)cc1NN
The melting point of the first is higher: 168 to 169 °C for the first, 163 °C for the second.

First: CC(=O)NC1(C)CCN(CCCOc2ccc(F)cc2)CC1
Second: CC(C)CCOc1ccc(C(=O)c2c(N)sc3c2CCN(Cc2ccccc2)C3)cc1
The melting point of the first is lower: 103 °C for the first, 106 to 107 °C for the second.

Compared with `CCCCCC(CCCCC)=NN=C1NC(=O)C(CC(=O)O)S1` (stereo not given), `CCCCCCCCc1ccc(-c2ncc(OCC(C)OC(=O)CCCCCC)cn2)cc1` (stereo not given) is lower in melting point: 134 to 135 °C for the first, 33 to 34.3 °C for the second.

Compared with `Cc1c(C(=O)NN2CCCCC2)nn(-c2ccc(Cl)cc2Cl)c1-c1ccc(Cl)cc1`, `CC(=O)N1N=C(c2ccc(N)cc2)c2cc(Cl)ccc2CC1C` (stereo not given) is higher in melting point: 148 °C for the first, 187 to 189 °C for the second.

Compared with `CN1CCN(CCCNc2ccccc2N)CC1`, `Cc1cccc(N2CCN(CCc3c(C)nc4ccc(C)cn4c3=O)CC2)c1` is higher in melting point: 65 to 67 °C for the first, 115 to 116 °C for the second.

`COc1cccc(C(O)c2cccnc2Cl)c1` (stereo not given) and `Nc1cc2cccnc2c(Cc2ccccc2)n1` cannot be ordered by melting point: 114 to 115 °C for the first, 113 to 116 °C for the second.

Compared with `NC(CCN(CCC(N)=NO)CCN(CCC(N)=NO)CCC(N)=NO)=NO`, `CCCc1c(OCC(O)CSc2ccc(C(=O)CCC(=O)O)c(O)c2)ccc(C(C)=O)c1O` (stereo not given) is lower in melting point: 191 to 192 °C for the first, 150 °C for the second.

Compared with `COc1nc(C)nc(NC(=O)NS(=O)(=O)c2ccccc2C(=O)Nc2nc[nH]n2)n1`, `Cc1ccc(C)n1-c1nc(S(=O)(=O)Nc2c(Cl)cccc2Cl)n[nH]1` is lower in melting point: 176 to 179 °C for the first, 107 to 108 °C for the second.

Compared with `COc1ccc(CC(=O)Nc2cc(Cl)c(Cl)cc2[N+](=O)[O-])cc1`, `COc1cccc(OC)c1-c1ccc(C[C@H](NC(=O)c2c(Cl)cc(-c3ccn[nH]3)cc2Cl)C(=O)O)cc1` is higher in melting point: 124 to 126 °C for the first, 156 °C for the second.

First: Cc1oc(-c2ccccc2)nc1COc1ccc(CC2SC(=N)NC2=O)cc1 (stereo not given)
Second: COc1ccc2nn(C=Cc3ccc(-c4ccccc4)cc3)nc2c1
The melting point of the first is higher: 257 to 258 °C for the first, 165 to 175 °C for the second.

First: CC(=O)C(Cc1cc(O)c(O)c([N+](=O)[O-])c1)C(=O)C1CC1 (stereo not given)
Second: CCOC(=O)c1cn(C2CC2)c2nc(N3C[C@@H](CNC(C)=O)[C@@H](Cl)C3)c(F)cc2c1=O (relative stereo)
The melting point of the first is lower: 98 to 104 °C for the first, 213 to 214 °C for the second.

First: CCCCOc1ncc(C(C)=O)cc1-c1nn2c(CC)nc(CCC)c2c(=O)[nH]1
Second: CCCn1c(=O)c2c(nc(/C=C/c3ccc(OCOC)c(OCOC)c3)n2C)n(CCC)c1=O
The melting point of the first is lower: 155 to 156 °C for the first, 172 to 173 °C for the second.

Compared with `CN1CC(CCCl)Oc2ccc(Cl)cc2C1=O` (stereo not given), `C[C@@H]1N(c2ccc(C#N)c(Cl)c2)C(=O)C[C@]1(C)O` is lower in melting point: 101 to 103 °C for the first, 93 to 99 °C for the second.

First: CCOC(=O)Cn1c(-c2ccc(C(F)(F)F)cc2)nc2cccnc21
Second: NS(=O)(=O)c1ccc(-c2cccc(-c3nc(-c4ccc(Cl)cc4)cc(C(F)(F)F)n3)c2)s1
The melting point of the first is lower: 147 to 148 °C for the first, 226 °C for the second.

First: Cc1nnc(-c2ccc3ncn(C4CCN(Cc5ccccc5)CC4)c3c2)o1
Second: c1ccc(-c2ncc(-c3nnc(-c4ccccc4)[nH]3)cn2)cc1
The melting point of the first is lower: 173 to 174 °C for the first, 280 to 282 °C for the second.

First: COc1ccc(N2C(=O)C(O)=C(C(=O)c3ccc(C(C)C)cc3)C2c2ccc(OC(F)(F)F)cc2)nn1 (stereo not given)
Second: COC(=O)COc1ccc(C(O)CNCc2ccc(C(=O)OC)cc2)cc1 (stereo not given)
The melting point of the first is higher: 271 °C for the first, 97 to 100 °C for the second.

First: Clc1ccc2c3c(cnc2c1)OCCN3
Second: CCOc1cc2c(cc1OCC)C(C(S)(C#N)c1ccc(Cl)cc1)=NCC2 (stereo not given)
The melting point of the first is higher: 219 to 220 °C for the first, 157 to 160 °C for the second.

First: COc1ccccc1CNc1ccc2cc(Nc3ncccn3)ccc2n1
Second: Nc1ccc2ccc(Nc3ccccc3)nc2n1
The melting point of the first is lower: 175 °C for the first, 250 °C for the second.

Compared with `CSC1NC(=O)N(Cc2ccco2)C(=O)N1`, `O=C1NC(=O)c2ccc(Br)cc2/C1=C/NCCc1c[nH]c2ccccc12` is higher in melting point: 209 to 211 °C for the first, 278 to 280 °C for the second.

Compared with `CC(C)c1nc(COCc2ccccc2)n(Cc2ccccc2)c1Sc1cccc([N+](=O)[O-])c1`, `CSc1cccc(COCCCn2ccnc2)c1NC(=O)CC1c2ccccc2Oc2ccccc21` is higher in melting point: 152 to 155 °C for the first, 176 to 177 °C for the second.

First: CC(CCC(=O)N(C)C#N)C(=O)N(C)C#N (stereo not given)
Second: CC(C)C[C@H](CN)CC(=O)O
The melting point of the first is lower: 59.2 to 60.9 °C for the first, 192 to 196 °C for the second.

First: O=C(O)COc1c(-c2cccc(Cl)c2)cc(C(=O)NCCCCCCCCc2ccccc2)cc1-c1cccc(Cl)c1
Second: CCCCCCCN(CCC(C)(C)CCSc1nc(-c2ccccc2)c(-c2ccccc2)[nH]1)C(=O)Nc1ccc(F)cc1F
The melting point of the first is higher: 165 to 167 °C for the first, 138 to 139 °C for the second.

Compared with `CC(C)C1C(CO)=C(c2ccc(F)cc2)C=CN1C12CC3CC(CC(C3)C1)C2` (stereo not given), `COc1cc2c(cc1OC)CN(CC(O)c1ccc(N)cc1)CC2` (stereo not given) is higher in melting point: 143 to 145 °C for the first, 168 °C for the second.

Going from `Cc1cc(C(=NO)c2cccs2)cc(C)c1OCC(=O)O` to `CCOC(=O)C1=C(N)NC(c2ccccc2)=C(C(=O)O)C1c1ccccc1` (stereo not given), the melting point rises from 152 °C to 183 °C.

First: CN1c2ccc(-c3ccc4ccccc4c3)cc2Sc2cc(-c3ccc4ccccc4c3)ccc21
Second: COc1cn(-c2cccc(-c3cnn(C)c3)c2F)nc(-c2ccnn2-c2ccccc2)c1=O
The melting point of the first is higher: 276 to 281 °C for the first, 218 to 221 °C for the second.

Compared with `COc1cccc(OC)c1-c1ccc(C[C@H](NC(=O)c2c(Cl)ccc(-c3c(C)noc3C)c2Cl)C(=O)O)cc1`, `CN1c2ccccc2C(c2ccccc2F)=NCC1CNC(=O)C(Cc1c[nH]c2ccccc12)NC(=O)OC(C)(C)C` (stereo not given) is lower in melting point: 145 °C for the first, 124 °C for the second.

Compared with `O=C(CCSCCSCCSCCC(=O)Nc1ccc(Nc2ccccc2)cc1)Nc1ccc(Nc2ccccc2)cc1`, `CC(C)(C)OC(=O)CN(C(=O)CNC(=O)c1ccc2ccccc2n1)c1ccccc1` is lower in melting point: 196 to 198 °C for the first, 114 °C for the second.

Compared with `Cc1c(Cc2cccnc2)oc2ccc(Br)cc12`, `N#Cc1cccc(-c2ccccc2O)c1` is higher in melting point: 57 to 58 °C for the first, 120 to 123 °C for the second.

First: CCOc1nn(CCO)cc1C(=O)NCc1ccc(Cl)cc1Cl
Second: CN(C(=O)NCCO)C1c2ccccc2Oc2ccccc21
The melting point of the first is higher: 152 to 153 °C for the first, 130 to 132 °C for the second.

First: Cc1nn(-c2c(Cl)cc(C(F)(F)F)cc2Cl)nc1COS(C)(=O)=O
Second: CC(C)(C)OC(=O)N1CCN(S(=O)(=O)c2ccc(N)c(Cl)c2)CC1
The melting point of the first is lower: 126 to 128 °C for the first, 243 to 244 °C for the second.

First: CCCNCC(=O)N1c2ccccc2N2CCc3cccc(c32)C1C (stereo not given)
Second: CN(C)C=C(C#N)C(=O)c1cccc(Oc2ccccc2)c1
The melting point of the first is higher: 113 to 118 °C for the first, 80 to 82 °C for the second.

First: OCC1OC(n2cnc3c(NCc4cccc(O)c4)ncnc32)C(O)C1O (stereo not given)
Second: CCN(CC)CCOc1ccc2c(c1)cc(OC)c1cc(OCCN(CC)CC)ccc12
The melting point of the first is higher: 196 °C for the first, 63 to 65 °C for the second.
